Measured values reported in patent US8232273B2, “Heterocyclic compounds and methods of use” (Genentech, Inc., priority 2008, dated 2012).

What was measured:
Bcl-xL (GST-Bcl-xL) [1] = biological target: T1, Bcl-xL (GST-Bcl-xL) (Homo sapiens, UniProt Q07817); experiment: TR-FRET binding assay, competition with F-Bak for the Bcl-xL binding site; conditions: values listed in the order of Table 1, read-out: TR-FRET assay results (Ki), Bcl-xL
Bcl-xL (GST-Bcl-xL) [2] = biological target: T1, Bcl-xL (GST-Bcl-xL); experiment: AlphaScreen Bcl-xL binding assay, competition with biotinylated Bim peptide; design: made in house; conditions: values listed in the order of Table 1; read-out: Alphascreen results (IC50) against the Bcl-xL protein
Text: The measurement of competition of compounds of the invention with Bim26-mer for a Bcl-2 family protein binding site using an Alpha Screen Bcl-xL binding assay:
The BH3 proteins AlphaScreen™ assay was used to identify active small molecules Bcl-2 family protein screen, e.g., Bcl-xL, hmMcl-1 screen.
The beads come in close proximity when the protein and the peptides interact. Donor beads contain a photosensitiser that converts oxygen to an excited form of O2 at an excitation of 680 nm. Energy is transformed from the singlet oxygen and reacts with chemiluminescers on the acceptor bead, resulting in light emission at 520-620 nm. […] With this information, the IC50 of each compound was calculated
GST-Bcl-xL, GST-hmMcl-1 and biotinylated GST proteins were prepared in-house and were stored as stock solutions at −80° C. The biotinylated-Bak, and biotinylated-Bim peptides were purchased from Auspep and were stored as 500 μM stock solutions in 100% DMSO at −80° C. […] DMSO was purchased from AnalaR.
Compounds of the invention were prepared as 10 mM stocks with 100% DMSO on the day prior to performing the assay. […] To achieve a final compound concentration of 1 μM, in a separate matrical plate, 28 μL of 100% DMSO and 2 μL of 10 mM compound was added to a well, mixed well, 2 μL of this solution was taken and added to 38 μL of 100% DMSO. 20 μL of this solution was added to the test matrical plate. Several control compounds were included in the test plates. For the control wells 15 μL 100% DMSO only was added to the appropriate wells of each plate. The compound plates were then serially diluted 2 fold using the MiniTrak. Once titrations were complete, the compound plate was immediately covered with a foil seal to prevent evaporation.
The assay and bead buffers were prepared fresh. Each titrated compound plate was assayed in duplicate. The following volumes were sufficient to run 12 Proxiplates (4 assay plates run in duplicate in each of Bclxl, hmMcl and counter assays)
Protein and Peptide Preparation; and Assay Performance • 1. The assay and bead buffers were used to prepare the acceptor and donor solutions. ALPHASCREEN™ beads are light sensitive and therefore prepared in a darkened room. 2.5 μL of beads were added per 1 mL of buffer. • 2. The volume of protein or peptide to add was calculated using the following formula:
V2=Volume of stock protein/Peptide to add to Acceptor/Donor solution • 3. The assay components were prepared as separate Acceptor and Donor Solutions. The Acceptor Solution contained Acceptor beads and target protein, while the Donor Solution contained Donor beads and biotinylated peptide.
• 4. After the solutions were prepared, they were left to incubate for 30 minutes at room temperature to allow the beads to bind to the protein and the peptide. • 5. 50 μL of Bcl-xL solution, 50 μL of hmMcl-1 solution and 50 μL of biotinylated-GST were added into separate deep wells on an assay plate. A control 50 μL Assay/Bead buffer was added separate well plates (no protein). • 6. 50 μL of Bim solution and 50 μL of Bak solution were added into separate deep well plates. • 7. Transfer 0.3 μL it of sample from the compound plate into each assay plate. • 8. Incubated for 30 mins at RT, then add 5 μL of the Donor solution. After addition of the Donor solution, tapped plates gently and sealed individually with adhesive film. • 9.
The percent inhibition was calculated using the following equation:
[formula] • x=RFU obtained after compound treatment • μ^−=RFU obtained for the negative controls (no protein controls) • μ^+=RFU obtained for the positive controls (DMSO vehicle controls)

T1 sequence (Q07817 whole entry, species assumed): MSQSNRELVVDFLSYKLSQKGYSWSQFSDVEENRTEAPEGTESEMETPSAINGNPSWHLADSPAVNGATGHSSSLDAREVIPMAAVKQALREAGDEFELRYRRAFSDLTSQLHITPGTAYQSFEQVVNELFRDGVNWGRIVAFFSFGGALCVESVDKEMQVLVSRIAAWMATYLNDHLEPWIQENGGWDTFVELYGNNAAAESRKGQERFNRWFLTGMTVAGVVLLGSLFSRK

Row | SMILES | Ki (Bcl-xL (GST-Bcl-xL) [1]) [nM] | IC50 (Bcl-xL (GST-Bcl-xL) [2]) [nM]
1 | CCCN(CCc1ccc(OCCCc2sc(N3CCc4cccc(C(=O)Nc5nc6ccccc6s5)c4C3)nc2C(=O)O)cc1)CC1CCCc2c1ccc(OC)c2OC (centres unmarked) [Example 28, 2-(8-(benzo[d]thiazol-2-ylcarbamoyl)-3,4-dihydroisoquinolin-2(1H)-yl)-5-(3-(4-(2-(((5,6-dimethoxy-1,2,3,4-tetrahydronaphthalen-1-yl)methyl)(propyl)amino)ethyl)phenoxy)propyl)thiazole-4-carboxylic acid] | 1 | 8
2 | Cc1cc(N2CCN(c3nc4ccccc4s3)CC2)ccc1OCCCc1sc(N2CCc3cccc(C(=O)Nc4nc5ccccc5s4)c3C2)nc1C(=O)O [Example 29, 5-(3-(4-(4-(benzo[d]thiazol-2-yl)piperazin-1-yl)-2-methylphenoxy)propyl)-2-(8-(benzo[d]thiazol-2-ylcarbamoyl)-3,4-dihydroisoquinolin-2(1H)-yl)thiazole-4-carboxylic acid] | 23 | 117
3 | N#C/C=C/c1cccc(OCCCc2sc(N3CCc4cccc(C(=O)Nc5nc6ccccc6s5)c4C3)nc2C(=O)O)c1 [Example 30, (E)-2-(8-(benzo[d]thiazol-2-ylcarbamoyl)-3,4-dihydroisoquinolin-2(1H)-yl)-5-(3-(3-(2-cyanovinyl)phenoxy)propyl)thiazole-4-carboxylic acid] | 0.4 | 0.3
4 | N#Cc1c(-c2ccc(OCCCc3sc(N4CCc5cccc(C(=O)Nc6nc7ccccc7s6)c5C4)nc3C(=O)O)cc2)n[nH]c1N [Example 31, 5-(3-(4-(5-amino-4-cyano-1H-pyrazol-3-yl)phenoxy)propyl)-2-(8-(benzo[d]thiazol-2-ylcarbamoyl)-3,4-dihydroisoquinolin-2(1H)-yl)thiazole-4-carboxylic acid] | 0.1 | 0.3
5 | N#Cc1c(-c2ccc(O)cc2)n[nH]c1NCCCc1sc(N2CCc3cccc(C(=O)Nc4nc5ccccc5s4)c3C2)nc1C(=O)O [Example 32, 2-(8-(benzo[d]thiazol-2-ylcarbamoyl)-3,4-dihydroisoquinolin-2(1H)-yl)-5-(3-(4-cyano-3-(4-hydroxyphenyl)-1H-pyrazol-5-ylamino)propyl)thiazole-4-carboxylic acid] | 17 | 50
6 | O=C(Nc1nc2ccccc2s1)c1cccc2c1CN(c1nc(C(=O)O)c(-c3ccc(CO)cc3)s1)CC2 [Example 34, 2-(8-(benzo[d]thiazol-2-ylcarbamoyl)-3,4-dihydroisoquinolin-2(1H)-yl)-5-(4-(hydroxymethyl)phenyl)thiazole-4-carboxylic acid] | 4 | 5
7 | N#Cc1c(-c2ccc(OCc3ccc(-c4sc(N5CCc6cccc(C(=O)Nc7nc8ccccc8s7)c6C5)nc4C(=O)O)cc3)cc2)n[nH]c1N [Example 35, 5-(4-((4-(5-amino-4-cyano-1H-pyrazol-3-yl)phenoxy)methyl)phenyl)-2-(8-(benzo[d]thiazol-2-ylcarbamoyl)-3,4-dihydroisoquinolin-2(1H)-yl)thiazole-4-carboxylic acid] | 4 | 10
8 | O=C(Nc1nc2ccccc2s1)c1cccc2c1CN(c1nc(C(=O)O)c(CCCO)s1)CC2 [Example 38, 2-(8-(Benzo[d]thiazol-2-ylcarbamoyl)-3,4-dihydroisoquinolin-2(1H)-yl)-5-(3-hydroxypropyl)thiazole-4-carboxylic acid] | 5 | 5
9 | O=C(Nc1nc2ccccc2s1)c1cccc2c1CN(c1nc(C(=O)O)c(CCCOc3ccc(-c4cccnc4)cc3)s1)CC2 [Example 41, 2-(8-(Benzo[d]thiazol-2-ylcarbamoyl)-3,4-dihydroisoquinolin-2(1H)-yl)-5-(3-(4-(pyridin-3-yl)phenoxy)propyl)thiazole-4-carboxylic acid] | 0.1 | 0.7
10 | N#Cc1c(-c2ccc(OCc3sc(N4CCc5cccc(C(=O)Nc6nc7ccccc7s6)c5C4)nc3C(=O)O)cc2)n[nH]c1N [Example 45, 5-((4-(5-amino-4-cyano-1H-pyrazol-3-yl)phenoxy)methyl)-2-(8-(benzo[d]thiazol-2-ylcarbamoyl)-3,4-dihydroisoquinolin-2(1H)-yl)thiazole-4-carboxylic acid] | 1 | 4
11 | O=C(Nc1nc2ccccc2s1)c1cccc2c1CN(c1nc(C(=O)O)c(CCCOc3ccc(-n4cccn4)cc3)s1)CC2 [Example 48, 5-(3-(4-(1H-pyrazol-1-yl)phenoxy)propyl)-2-(8-(benzo[d]thiazol-2-ylcarbamoyl)-3,4-dihydroisoquinolin-2(1H)-yl)thiazole-4-carboxylic acid] | 0.05 | 0.3
12 | O=C(Nc1nc2ccccc2s1)c1cccc2c1CN(c1nc(C(=O)O)c(CCOc3ccc(-n4ncc5cncnc54)cc3)s1)CC2 [Example 49, 5-(2-(4-(1H-pyrazolo[3,4-d]pyrimidin-1-yl)phenoxy)ethyl)-2-(8-(benzo[d]thiazol-2-ylcarbamoyl)-3,4-dihydroisoquinolin-2(1H)-yl)thiazole-4-carboxylic acid] | 12 | 80
13 | O=C(Nc1nc2ccccc2s1)c1cccc2c1CN(c1nc(C(=O)O)c(CCOc3cccc(-n4ncc5cncnc54)c3)s1)CC2 [Example 50, 5-(2-(3-(1H-pyrazolo[3,4-d]pyrimidin-1-yl)phenoxy)ethyl)-2-(8-(benzo[d]thiazol-2-ylcarbamoyl)-3,4-dihydroisoquinolin-2(1H)-yl)thiazole-4-carboxylic acid] | 2 | 10
14 | N#Cc1cscc1-c1ccc(OCCCc2sc(N3CCc4cccc(C(=O)Nc5nc6ccccc6s5)c4C3)nc2C(=O)O)cc1 [Example 51, 2-[8-(Benzothiazol-2-ylcarbamoyl)-3,4-dihydro-1H-isoquinolin-2-yl]-5-{3-[4-(4-cyano-thiophen-3-yl)-phenoxy]-propyl}-thiazole-4-carboxylic acid] | 0.3 | 6
15 | O=C(Nc1nc2ccccc2s1)c1cccc2c1CN(c1nc(C(=O)O)c(CN3CCN(c4ccccc4)CC3)s1)CC2 [Example 62, 2-(8-(benzo[d]thiazol-2-ylcarbamoyl)-3,4-dihydroisoquinolin-2(1H)-yl)-5-((4-phenylpiperazin-1-yl)methyl)thiazole-4-carboxylic acid] | 130 | 1600
16 | O=C(Nc1nc2ccccc2s1)c1cccc2c1CN(c1nc(C(=O)O)c(CN3CCC(c4ccccc4)CC3)s1)CC2 [Example 63, 2-(8-(benzo[d]thiazol-2-ylcarbamoyl)-3,4-dihydroisoquinolin-2(1H)-yl)-5-((4-phenylpiperidin-1-yl)methyl)thiazole-4-carboxylic acid] | 248 | 574
17 | O=C(Nc1nc2ccccc2s1)c1cccc2c1CN(c1nc(C(=O)O)c(CN3CCC3c3ccccc3)s1)CC2 (centres unmarked) [Example 71, 2-[8-(Benzothiazol-2-ylcarbamoyl)-3,4-dihydro-1H-isoquinolin-2-yl]-5-(2-phenyl-azetidin-1-ylmethyl)-thiazole-4-carboxylic acid] | 174 | 570
18 | Nc1nc2ccccc2n1-c1ccc(OCCCc2sc(N3CCc4cccc(C(=O)Nc5nc6ccccc6s5)c4C3)nc2C(=O)O)cc1 [Example 77, 5-(3-(4-(2-amino-1H-benzo[d]imidazol-1-yl)phenoxy)propyl)-2-(8-(benzo[d]thiazol-2-ylcarbamoyl)-3,4-dihydroisoquinolin-2(1H)-yl)thiazole-4-carboxylic acid] | 7 | 34
19 | CN1CCN(C(=O)c2ccc(OCCCc3ccc(N4CCc5cccc(C(=O)Nc6nc7ccccc7s6)c5C4)nc3C(=O)O)cc2)CC1 [Example 98, 6-(8-(benzo[d]thiazol-2-ylcarbamoyl)-3,4-dihydroisoquinolin-2(1H)-yl)-3-(3-(4-(4-methylpiperazine-1-carbonyl)phenoxy)propyl)picolinic acid] | 10 | 140
